Results reported in PMC7845594, “Novel Immune Modulators Enhance Caenorhabditis elegans Resistance to Multiple Pathogens” (mSphere, 2021).

Experiments:
[1] = tested on: P. aeruginosa strain PA14; experiment: MIC assay (bacterial growth, no worms); assay type: cell-based, Pseudomonas aeruginosa
Method: For the first round of characterization, 69 novel small molecules previously selected on the basis of their ability to improve C. elegans survival during exposure to P. aeruginosa in liquid ([14]) were tested for the ability to interfere with bacterial growth. MICs were determined for each compound by growing P. aeruginosa strain PA14 in static culture in 384-well plates with serial 2-fold dilutions of compounds. No worms were used in these assays. Next, effective rescue concentrations (EC; defined as the minimum concentration that results in statistically significant survival, compared to dimethyl sulfoxide [DMSO]) ([15], [18]) were determined for each compound using the standard P. aeruginosa liquid killing assay. Sterile glp-4(bn2) worms were used in all liquid-based assays to limit artifacts (i.e., unlaid eggs will hatch and cause matricide).
Plates were allowed to grow for 24 h at 37°C without shaking. Growth was scored visually on the basis of turbidity. At least three biological replicates were performed.

[2] = tested on: C. elegans transcriptome; experiment: Transcriptome profiling (Affymetrix microarrays), differentially expressed genes; assay type: in vivo, Caenorhabditis elegans
Method: To gain additional insight into the effect of LK molecules on C. elegans, young-adult, wild-type worms were treated with each drug at 100 µM for 8 h in the absence of pathogen. RNA was collected, and transcriptome profiling was performed.
Data were determined using Affymetrix microarrays, as described in Materials and Methods. Download Table S3, XLSX file, 0.07 MB.
Transcriptome profiling was performed on ∼6,000 wild-type, young adult worms incubated with either LK molecules or DMSO for 8 h. RNA isolation was performed using TRIzol extraction, followed by cleanup using RNeasy columns according to the manufacturer’s protocol. Each condition was analyzed in triplicate. Microarray data have been deposited in the GEO database, accession number GSE137516. […] Clustering and generation of the heat map was performed using Cluster 3.0 ([98]) and Treeview ([99]), respectively. Fold change of genes were normalized to average fold change of that gene over all clustered conditions. Genes and conditions were clustered using Euclidean distance and average linkages. […] Microarray data for non-LK molecules were collected from GEO omnibus. WormEXP was used as a secondary method for confirming statistical significance of potential pathways stimulated by each of the LK molecules ([100]). Gene ontologies were generated using DAVID ([101], [102]).

[3] = Downregulated genes, Affy_ID 171867_x_at

CNC(=O)Oc1c(Br)cc2sc(=O)oc2c1Br [LK34]
MIC ([1]; Pseudomonas aeruginosa, PA14): > 522 µM
MIC / EC ([1]; ratio of MIC to EC, P. aeruginosa PA14): > 56.1
Fold Change ([2]; Affy_ID 171867_x_at, listed under genes C09B9.6, F36H12.7, K07F5.1, R05F9.13, R13H9.2, R13H9.4, T13F2.10, T13F2.11, Y59E9AR.1, Y59E9AR.7, ZK354.1, downregulated genes): 0.2366
Fold Change, gene ZK354.1 [2, 3]: 0.2366
Fold Change, gene ZK354.10 [2, 3]: 0.2366
Fold Change, gene ZK354.11 [2, 3]: 0.2366
Fold Change, gene ZK354.4 [2, 3]: 0.2366
Fold Change, gene ZK354.5 [2, 3]: 0.2366
Fold Change, gene ZK525.1 ([2]; Downregulated genes, Affy_ID 172214_x_at): 0.3205
Fold Change, gene ZK484.8 ([2]; Downregulated genes, Affy_ID 172381_x_at): 0.3874
Fold Change, gene ZK546.3 ([2]; Downregulated genes, Affy_ID 172798_x_at): 0.1968
Fold Change, gene ZK131.7 ([2]; Downregulated genes, Affy_ID 172871_x_at): 0.3375
Fold Change, gene ZK546.6 ([2]; Downregulated genes, Affy_ID 172900_x_at): 0.1968
Fold Change, gene ZK669.2 ([2]; Downregulated genes, Affy_ID 179491_at): 0.229
Fold Change, gene ZK550.2 ([2]; Downregulated genes, Affy_ID 179513_at): 0.3085
Fold Change, gene ZK484.5 ([2]; Downregulated genes, Affy_ID 182193_at): 0.3399
Fold Change, gene ZK593.1 ([2]; Downregulated genes, Affy_ID 189095_at): 0.4248
Fold Change, gene ZK666.7 ([2]; Downregulated genes, Affy_ID 194066_s_at): 0.02705
Fold Change ([2]; Gene C05C12.3, Affy_ID 183355_s_at, downregulated genes): 0.4055
Fold Change ([2]; Gene M163.1, Affy_ID 177298_at, downregulated genes): 0.426
Fold Change ([2]; Gene R01E6.3, Affy_ID 189628_at, downregulated genes): 0.3684
Fold Change ([2]; Gene R03E9.1, Affy_ID 193723_s_at, downregulated genes): 0.2017
Fold Change ([2]; Gene R03E9.3, Affy_ID 174840_s_at, downregulated genes): 0.4768
Fold Change ([2]; Gene R05F9.3, Affy_ID 172725_x_at, downregulated genes): 0.4019
Fold Change ([2]; Gene R05F9.8, Affy_ID 172724_x_at, downregulated genes): 0.2519
Fold Change ([2]; Gene R05G6.10, Affy_ID 192058_at, downregulated genes): 0.3616
Fold Change ([2]; Gene R12C12.1, Affy_ID 190616_at, downregulated genes): 0.2442
Fold Change ([2]; Gene R12E2.9, Affy_ID 180698_s_at, downregulated genes): 0.3881
Fold Change ([2]; Gene R52.3, Affy_ID 177369_at, downregulated genes): 0.4244
Fold Change ([2]; Gene T01C3.4, Affy_ID 188106_at, downregulated genes): 0.02189
Fold Change ([2]; Gene T02B11.3, Affy_ID 174051_s_at, downregulated genes): 0.4182
Fold Change ([2]; upregulated gene T13H2.4, Affy_ID 183082_s_at): 2.522
Fold Change ([2]; upregulated gene T14F9.3, Affy_ID 173287_s_at): 3.284
Fold Change ([2]; upregulated gene T14G8.1, Affy_ID 193596_s_at): 3.752
Fold Change ([2]; upregulated gene T15B7.3, Affy_ID 188456_at): 3.308
Fold Change ([2]; upregulated gene T19B10.2, Affy_ID 181715_s_at): 5.383
Fold Change ([2]; upregulated gene T20F7.6, Affy_ID 173076_s_at): 3.038
Fold Change ([2]; upregulated gene T21C12.2, Affy_ID 193009_at): 2.072
Fold Change ([2]; upregulated gene T21E3.3, Affy_ID 173760_s_at): 2.777
Fold Change ([2]; upregulated gene T22B7.3, Affy_ID 181552_at): 4.555
Fold Change ([2]; upregulated gene T22B7.7, Affy_ID 173688_s_at): 13.7199
Fold Change ([2]; upregulated gene T22F3.3, Affy_ID 176676_s_at): 2.752
Fold Change ([2]; upregulated gene T24B8.3, Affy_ID 175022_s_at): 3.173
Fold Change ([2]; upregulated gene T24B8.5, Affy_ID 178297_at): 134.612
Fold Change ([2]; upregulated gene T24C4.4, Affy_ID 182815_at): 2.661
Fold Change ([2]; upregulated gene T25G12.5, Affy_ID 174581_s_at): 2.002
Fold Change ([2]; upregulated gene T26C5.1, Affy_ID 190852_at): 2.137
Fold Change ([2]; upregulated gene T27A3.2, Affy_ID 192961_at): 2.203
Fold Change ([2]; upregulated gene T27E4.3, Affy_ID 172901_x_at): 16.0293
Fold Change ([2]; upregulated gene T28D9.3, Affy_ID 187493_at): 2.783
Fold Change ([2]; upregulated gene VZK822L.1, Affy_ID 187997_s_at): 2.806
Fold Change ([2]; upregulated gene W01F3.2, Affy_ID 173274_s_at): 7.505
Fold Change ([2]; upregulated gene W02A2.7, Affy_ID 193943_at): 2.753
Fold Change ([2]; upregulated gene W03C9.7, Affy_ID 194039_s_at): 2.373
Fold Change ([2]; upregulated gene W03F8.10, Affy_ID 174843_at): 5.242
Fold Change ([2]; upregulated gene W03F9.4, Affy_ID 189587_s_at): 16.8516
Fold Change ([2]; upregulated gene W04A8.4, Affy_ID 178654_s_at): 22.7121
Fold Change ([2]; upregulated gene W04B5.1, Affy_ID 180966_s_at): 3.157
Fold Change ([2]; upregulated gene W04B5.3, Affy_ID 173153_s_at): 2.678
Fold Change ([2]; upregulated gene W05G11.6, Affy_ID 192581_s_at): 4.517
Fold Change ([2]; upregulated gene W05H9.1, Affy_ID 179806_at): 2.462
Fold Change ([2]; upregulated gene W06D4.1, Affy_ID 172046_x_at): 3.704
Fold Change ([2]; upregulated gene W06D12.3, Affy_ID 192357_at): 7.111
Fold Change ([2]; upregulated gene W06H8.1, Affy_ID 185746_s_at): 2.211
Fold Change ([2]; upregulated gene W09C3.1, Affy_ID 192187_s_at): 2.464
Fold Change ([2]; upregulated gene W09D10.2, Affy_ID 188190_at): 2.479
Fold Change ([2]; upregulated gene Y17G7B.5, Affy_ID 191321_s_at): 2.063
Fold Change ([2]; upregulated gene Y19D10A.9, Affy_ID 180592_s_at): 3.023
Fold Change ([2]; upregulated gene Y22F5A.4, Affy_ID 182989_at): 2.493
Fold Change ([2]; upregulated gene Y22F5A.5, Affy_ID 183028_s_at): 6.999
Fold Change ([2]; upregulated gene Y25C1A.13, Affy_ID 192131_s_at): 2.041
Fold Change ([2]; upregulated gene Y37A1B.5, Affy_ID 182849_at): 3.394
Fold Change ([2]; upregulated gene Y37D8A.3, Affy_ID 182387_at): 3.237
Fold Change ([2]; upregulated gene Y37D8A.6, Affy_ID 181665_at): 3.132
Fold Change ([2]; upregulated gene Y37E3.16, Affy_ID 173045_at): 3.373
Fold Change ([2]; upregulated gene Y38E10A.14, Affy_ID 175449_s_at): 19.1307
Fold Change ([2]; upregulated gene Y38F1A.9, Affy_ID 183759_at): 3.202
Fold Change ([2]; upregulated gene Y39G10AR.10, Affy_ID 176486_at): 3.752
Fold Change ([2]; upregulated gene Y40B10A.6, Affy_ID 176851_at): 72.4303
Fold Change ([2]; upregulated gene Y41C4A.16, Affy_ID 194230_x_at): 2.854
Fold Change ([2]; upregulated gene Y41D4B.10, Affy_ID 176055_at): 12.5937
Fold Change ([2]; upregulated gene Y41D4B.16, Affy_ID 176044_at): 3.687
Fold Change ([2]; upregulated gene Y42G9A.3, Affy_ID 184843_at): 2.448
Fold Change ([2]; upregulated gene Y45F3A.3, Affy_ID 190484_at): 2.142
Fold Change ([2]; upregulated gene Y45F10C.4, Affy_ID 186062_at): 3.365
Fold Change ([2]; upregulated gene Y45G12C.2, Affy_ID 187084_at): 44.4121
Fold Change ([2]; upregulated gene Y47D3B.10, Affy_ID 175803_at): 16.792
Fold Change ([2]; upregulated gene Y47H9C.5, Affy_ID 191065_s_at): 3.655
Fold Change ([2]; upregulated gene Y51H7C.1, Affy_ID 186349_at): 10.7753
Fold Change ([2]; upregulated gene Y53C10A.5, Affy_ID 185387_s_at): 2.3
Fold Change ([2]; upregulated gene Y53F4B.33, Affy_ID 191337_at): 3.746
Fold Change ([2]; upregulated gene Y53G8B.2, Affy_ID 184714_s_at): 12.3167
Fold Change ([2]; upregulated gene Y55B1AR.1, Affy_ID 187047_at): 6.102
Fold Change ([2]; upregulated gene Y57A10A.23, Affy_ID 187073_at): 4.099
Fold Change ([2]; upregulated gene Y57G7A.1, Affy_ID 184451_at): 2.494
Fold Change ([2]; upregulated gene Y66D12A.24, Affy_ID 175124_at): 2.157
Fold Change ([2]; upregulated gene Y73F4A.1, Affy_ID 183741_s_at): 2.361
Fold Change ([2]; upregulated gene Y77E11A.2, Affy_ID 187013_at): 2.74
Fold Change ([2]; upregulated gene Y105C5B.15, Affy_ID 186799_at): 3.153
Fold Change ([2]; upregulated gene Y105C5B.9, Affy_ID 185162_at): 4.733
Fold Change ([2]; upregulated gene Y106G6D.6, Affy_ID 185498_at): 6.605
Fold Change ([2]; upregulated gene Y110A2AL.4, Affy_ID 175367_s_at): 14.9078
Fold Change ([2]; upregulated gene ZC64.2, Affy_ID 177670_at): 2.001
Fold Change ([2]; upregulated gene ZC155.1, Affy_ID 173222_s_at): 2.272
Fold Change ([2]; upregulated gene ZC455.4, Affy_ID 191057_s_at): 5.011
Fold Change ([2]; upregulated gene ZK6.10, Affy_ID 175170_s_at): 5.465
Fold Change ([2]; upregulated gene ZK455.1, Affy_ID 193891_at): 2.692
Fold Change ([2]; upregulated gene ZK512.7, Affy_ID 186714_s_at): 3.907
Fold Change ([2]; upregulated gene ZK550.6, Affy_ID 186811_s_at): 2.631
Fold Change ([2]; upregulated gene ZK637.13, Affy_ID 173475_s_at): 3.509
Fold Change ([2]; upregulated gene ZK688.6, Affy_ID 176040_s_at): 2.439
Fold Change ([2]; upregulated gene ZK770.3, Affy_ID 180366_s_at): 3.016
Fold Change ([2]; upregulated gene ZK829.9, Affy_ID 189819_s_at): 5.03
Fold Change ([2]; upregulated gene ZK899.2, Affy_ID 178376_s_at): 4.028
Fold Change ([2]; upregulated gene ZK1058.6, Affy_ID 188607_at): 45.3463
Fold Change ([2]; upregulated gene ZK1251.2, Affy_ID 188538_at): 5.974
Fold Change ([2]; upregulated gene ZK1290.8, Affy_ID 184676_s_at): 4.32
